Experimental findings from US9359342B2, “Protein disulfide isomerase inhibiting anticancer agents” (THE CLEVELAND CLINIC FOUNDATION, priority 2013, dated 2016) are described below.

For one data set, the target named is recombinant PDI (Homo sapiens, UniProt P07237). As to the kind of experiment: PDI activity assay (di-eosin-di-gluthathione, eGSSG). As to conditions: for PDI Activity at 10 μM (%): compound at 10 μM; for pIC50: recombinant PDI, di-eosin-di-gluthathione assay. It counts as biochemical. The procedure:
PDI activity assay: The di-eosin-di-gluthathione assay was performed essentially as described (Raturi, A. and Mutus, B Free Radical Biology & Medicine 43; 2007) with the minor modification that we used gluthathione instead of DTT as reducing agent. Briefly, recombinant PDI was incubated with CC642 or analogs in potassium-based assay buffer at 37° C. before reactions were started by addition of gluthathione and di-eosin-di-gluthathione. Release of eosin was measured every 60 seconds for 30 min using excitation/emission filters of 525 nm/545 nm, respectively.
(§1) Next, MM1.S cells were treated with B-CCF642 and purified lysates of treated and untreated cells for B-CCF642 binding proteins using streptavidin beads followed by SDS-PAGE and mass spectroscopy for protein sequencing of a band that contained biotin signal. Among 10 proteins that were only recovered from treated cells PDI was the most abundant but HSP70 family members were also recovered. To test whether HSP70 family members were inhibited by CCF642, chaperone assays were performed that tested rearrangement of partially denatured luciferase. […] However, PDI function, as assessed by the eGSSG assay which measures PDI's reducing capacity, was inhibited by CCF642 (table 1). […] To determine whether PDI activity is inhibited in vivo, the inventors performed IRE1-α immunoblots after CCF642 treatment of MM1.S cells. IRE1-α acts as a sensor for misfolded proteins in the ER and undergoes oligomerization after it binds to misfolded proteins which changes its conformation into an active state. Lavoie et al., Trends in biochemical sciences, 39(10):475-486 (2014). Within 15 min CCF642 caused IRE1-α oligomerization (FIG. 6) which was associated with increase in protein ubiquitination (FIGS. 2b and 4), a well-documented consequence of reduction in PDI activity. Lee et al., EMBO molecular medicine. 6(6):732-743 (2014).

The subject of the next data set is MM1.S. The data set is described as follows: MM1.S myeloma cell viability. The conditions noted are these: Homo sapiens; for viability at 6.75 µM: MM1.S, compound at 6.75 μM, read-out: MM1.S Viable cells at 6.75 μM (%); for pIC50: MM1.S myeloma cells. In kind it is cell-based. From the text: Cell lines: Multiple myeloma cell lines MM1.S, MM1.R, NCI-H929 were obtained from ATCC. MM cell lines KMS-12-PE and KMS-12-BM were from the JCRB, JJN-3 from DSMZ, and 5TGM1-luc cells were from Dr. Yoneda at the University of Texas Health Science at San Antonio. HRMM.09 cells were generated in the inventor's lab from a patient who developed refractory myeloma after treatment with steroids, IMiD, proteasome inhibitors, DNA alkylators, and anthracyclines. MM1.S-luc and HRMM.09-luc were generated in the inventor's laboratory by transduction with Cignal™ firefly luciferase control lentivirus obtained from Qiagen™. Lymphoma cells were generated by Mitchell Smith. All MM and lymphoma cells were grown in RPMI 1640 (NaCl 103.45 mM, NaCO3 23.81 mM, Na2HPO4 5.63 mM, KCl 5.33 mM, Ca(NO3)2 4H2O 0.424 mM, MgSO4 0.407 mM, pH around 7.2), supplemented with 10% fetal bovine serum, penicillin G (50 units ml^−1), and streptomycin ([…]). HS-5 cells were grown in appropriate cell culture media. Normal bone marrow cells were obtained from discarded bags of bone marrow grafts from healthy donors and either kept in RPMI with 25% (v/v) HS-5 supernatant for up to 14 days for isolated cytotoxicity assays or frozen and thawed for the sandwich assay. All cells were cultured at 37° C., 5% CO2 in humidified air.

The next data set concerns MM cell lines. The data set is described as follows: Cytotoxicity in MM cell line panel (trypan blue exclusion, Vicell). As to conditions: 72 h, all 8 MM cell lines tested. It counts as cell-based. The protocol:
(§2) FIGS. 2(A-B) provide a graph and immunoblot showing the effect of CCF642 on cancer and protein ubiquitination, with FIG. 2(A) showing the activity of CCF642 against a panel of MM and lymphoma cells. Seventy two hours after CCF642 administration, the IC50 by trypan blue exclusion (Vicell™) is <1 μM for all MM and all but one lymphoma line. Normal bone marrow (NL BM) tolerated CCF642; myeloid cells were less sensitive, especially GDM1, with E3 ligase domain mutation of c-CBL and FIG. 2(B) showing that an increase in protein ubiquitination is accompanied by loss of myeloma survival factors in MM cells Immunoblots of MM1.S cells show rise followed by decrease of protein ubiquitination with loss of MM survival factors.
(§3) Cell lines: Multiple myeloma cell lines MM1.S, MM1.R, NCI-H929 were obtained from ATCC. MM cell lines KMS-12-PE and KMS-12-BM were from the JCRB, JJN-3 from DSMZ, and 5TGM1-luc cells were from Dr. Yoneda at the University of Texas Health Science at San Antonio. HRMM.09 cells were generated in the inventor's lab from a patient who developed refractory myeloma after treatment with steroids, IMiD, proteasome inhibitors, DNA alkylators, and anthracyclines. MM1.S-luc and HRMM.09-luc were generated in the inventor's laboratory by transduction with Cignal™ firefly luciferase control lentivirus obtained from Qiagen™. Lymphoma cells were generated by Mitchell Smith. […]

The next data set has as its system lymphoma cell lines. The data set is described as follows: Cytotoxicity in lymphoma cell line panel (trypan blue exclusion, Vicell). It counts as cell-based. The conditions noted are these: 6 of 7 (all but one) lymphoma lines, 72 h. The protocol:
as §2, §3

In data set [1] the test system is normal bone marrow (NL BM) cells. The data set is described as follows: Cytotoxicity in normal bone marrow. In kind it is cell-based. The conditions noted are these: three independent normal bone marrow samples; doses up to 6.75 μM. The protocol: as §2, §3
The nature of a further data set: Tolerability in mice. In kind it is in vivo, C57BL/KaLwRij mice.
For another data set, the system named is IRE1-α. The data set is described as follows: IRE1-α oligomerization immunoblot in MM1.S cells. It counts as cell-based. The procedure: as §1
In another data set the test system is protein ubiquitination. As to the kind of experiment: Protein ubiquitination time course immunoblot in MM1.S cells. It counts as cell-based. An excerpt:
Protein ubiquitination and depletion of c-MYC, IRF4, and NF-κB. Initial tests were aimed at excluding proteasome inhibitors from further study and used WB for accumulation of ubiquitinated proteins after one day of therapy. […] Another proteasomally regulated protein, p27, disappeared as well.

pIC50: −log10 of the molar value. Some results are limits rather than exact numbers.

Sequence of recombinant PDI (P07237 18-508, species assumed): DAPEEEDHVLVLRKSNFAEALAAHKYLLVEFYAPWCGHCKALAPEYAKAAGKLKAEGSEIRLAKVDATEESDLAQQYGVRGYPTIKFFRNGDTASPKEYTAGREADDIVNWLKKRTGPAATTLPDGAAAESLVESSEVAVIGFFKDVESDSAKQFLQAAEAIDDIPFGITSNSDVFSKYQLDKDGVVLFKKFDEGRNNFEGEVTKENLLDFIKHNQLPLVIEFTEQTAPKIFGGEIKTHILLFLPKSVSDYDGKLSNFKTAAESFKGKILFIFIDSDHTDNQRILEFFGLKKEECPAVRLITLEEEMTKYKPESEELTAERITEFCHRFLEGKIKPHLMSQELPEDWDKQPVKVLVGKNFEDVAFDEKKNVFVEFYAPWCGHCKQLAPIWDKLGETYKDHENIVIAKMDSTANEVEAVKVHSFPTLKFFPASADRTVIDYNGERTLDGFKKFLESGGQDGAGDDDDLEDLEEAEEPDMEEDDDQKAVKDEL

What is called pIC50 is the IC50 on a negative log10 scale, so that one unit is a factor of ten. For `COc1ccc(N2C(=O)C(=Cc3ccc(C(F)(F)F)s3)SC2=S)cc1` [642-20], the “PDI Activity at 10 μM (%)” value on recombinant PDI is given as 72.37%. Moreover, in the data set on MM1.S, the viability at 6.75 µM stood at 92.9% and the negative logarithm of the IC50 (pIC50) is < 5.17.
For `COc1ccc(N2C(=O)C(=Cc3ccc(C(=O)O)s3)SC2=S)cc1` [642-21], in that order: 71.54%, 102% and < 5.17.
On to `N#Cc1ccc(N2C(=O)C(=Cc3ccc([N+](=O)[O-])s3)SC2=S)cc1` [642-23], for which, on recombinant PDI, the “PDI Activity at 10 μM (%)” value is given as 5.92% and the negative logarithm of the IC50 (pIC50) was 5.72. For the same compound, in the data set with MM1.S, the viability at 6.75 µM is 17.5% and the pIC50 was 6.21.
As for `COc1ccc(N2C(=O)/C(=C/c3cccc([N+](=O)[O-])c3)SC2=S)cc1` [642-24], on recombinant PDI, the “PDI Activity at 10 μM (%)” value is listed as 42.12% and the pIC50 is 5.06. In addition, in the data set on MM1.S, the viability at 6.75 µM is 93.5% and the negative-log IC50 (pIC50) is < 5.17.
For `C=CCc1cccc(/C=C2\SC(=S)N(c3ccc(OC)cc3)C2=O)c1O` [642-25], in that order: 40.37%, 5.51, 92.8% and < 5.17.
Turning to `COc1ccc(N2C(=O)/C(=C/c3ccc([N+](=O)[O-])s3)SC2=S)cc1` [642-Parent], the “PDI Activity at 10 μM (%)” value on recombinant PDI worked out at 21.51%. Also, the pIC50 was 5.61 on recombinant PDI; 6.60 with MM1.S; > 6.00 in the data set with MM cell lines; ~6.30 in the data set with MM cell lines (listed as CCF642); > 6.00 in the data set with lymphoma cell lines; < 5.17 in data set [1]. For the same compound, the viability at 6.75 µM in the data set on MM1.S is 8.06%. Also, the “tolerability in 5TGM1-luc engrafted mice” value in the data set “Tolerability in mice” (C57BL/KaLwRij mice systemically engrafted with 5TGM1-luc) was “well tolerated”. Further, the “tolerability IV” value in “Tolerability in mice” (albumin-based formulation (10-20% BSA, saline, 10% DMSO) given IV) is on record as “tolerated by mice when given IV”. The “time to IRE1-α oligomerization” value in the data set on IRE1-α is listed as ≤ 15 min. In addition, the “time to increase in protein ubiquitination” value in the data set on protein ubiquitination is recorded as ≤ 30 min.
As for `CC(C)C[C@H](NC(=O)[C@H](Cc1ccccc1)NC(=O)c1cnccn1)B(O)O` [bortezomib, reference compound], the maximal tolerated dose in the data set “Tolerability in mice” (SC twice a week, C57BL/KaLwRij mice) was 0.5 mg/kg.
